In US12065416B2, “cGAS antagonist compounds” (IMMUNESENSOR THERAPEUTICS, INC., priority 2016, dated 2024):

The compounds below were run against T1, recombinant cGAS (aa147-522) (Homo sapiens, UniProt Q8N884) (assay: In vitro assay for inhibition of cGAS activity (ATP consumption, Kinase Glo)). Details: 37° C. 20 minutes, read-out: Activity (Inhibition of cGAS enzyme activity in vitro, IC50).
T1 construct: recombinant cGAS (aa147-522); His6-SUMO (N, cleaved yes); made in house; host or cells: E. coli BL21/pLys
T1 sequence (Q8N884 147-522): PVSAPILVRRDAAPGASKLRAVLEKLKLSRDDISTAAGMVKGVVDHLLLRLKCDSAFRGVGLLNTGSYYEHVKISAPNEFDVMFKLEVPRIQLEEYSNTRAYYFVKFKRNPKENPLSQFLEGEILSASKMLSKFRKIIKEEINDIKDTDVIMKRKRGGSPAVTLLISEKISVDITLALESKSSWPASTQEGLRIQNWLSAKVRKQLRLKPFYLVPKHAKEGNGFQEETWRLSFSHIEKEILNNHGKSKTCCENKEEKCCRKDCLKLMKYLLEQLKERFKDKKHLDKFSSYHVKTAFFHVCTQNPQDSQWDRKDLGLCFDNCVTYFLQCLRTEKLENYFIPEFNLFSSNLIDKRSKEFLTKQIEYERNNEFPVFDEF
Format: biochemical
Procedure: cDNA encoding full-length or amino acids 147-520 of human cGAS is inserted into a modified pET28a vector containing an in-frame His6-SUMO tag. The E. coli strain BL21/pLys harboring the plasmid is induced with 0.5 mM IPTG at 18° C. overnight. His6-SUMO tag was removed by a SUMO proease following purification of the HiS-SUMO-cGAS as described previously (Sun et al, 2013, Science 339, 786).
A40 μL mixture containing 1.5 ng/μL of recombinant cGAS (aa147-522) and serial dilutions of a test compound or DMSO was added to a 96-well plate and incubated at 37° C. for 20 minutes. At the end of reaction, 20 μL of Kinase Glo (Promega) was added and chemiluminescence measured with a luminometer. Inhibitory effect of a compound is evaluated by plotting percentage of ATP consumption against logarithm of compound concentrations. IC50 value was calculated using Graphpad (Sigma).

IC50 [µM] | SMILES
≤ 0.5 | CN1C(=O)S/C(=C\c2cc(OCc3cnc(N)nc3C(F)(F)F)c(O)cc2Br)C1=O [Ex172]
≥ 10 | CSc1ncncc1C(=O)C(C)Oc1cc(/C=C2\SC(=O)N(C)C2=O)c(Br)c(F)c1O (centres unmarked) [ExB36]
≤ 0.5 | CN1C(=O)S/C(=C\c2cc(OCc3cnc(Nc4ccncc4)nc3)c(O)cc2Br)C1=O [Ex160]
≥ 10 | COc1cc2c(cc1O)CC/C2=C1/SC(=O)N(C)C1=O [Ex13]
0.5 to 10 | COc1cc(/C=C2\SC(=O)N(C)C2=O)c(Br)c(Cl)c1O [Ex34]
≥ 10 | CN1C(=O)S/C(=C\c2cc(Oc3cccc4ncccc34)c(O)cc2Br)C1=O [ExB5]
≤ 0.5 | Cc1nc(N)ncc1COc1cc(/C=C2\Sc3ncccc3C2=O)c(Br)c(F)c1O [ExA8]
0.5 to 10 | CN1C(=O)S/C(=C\c2cc(OCc3cccc4cnccc34)c(O)cc2Br)C1=O [Ex173]
0.5 to 10 | CN1C(=O)S/C(=C\c2cc(OCc3cc[nH]c(=O)c3)c(O)cc2Br)C1=O [Ex134]
0.5 to 10 | Cc1nc([S+](C)[O-])nc(C)c1COc1cc(/C=C2\SC(=O)N(C)C2=O)c(Br)cc1O (centres unmarked) [Ex215]
0.5 to 10 | O=C1/C(=C/c2cc3oc(=O)[nH]c3cc2Br)Sc2ncccc21 [Ex26]
≥ 10 | CN1C(=O)S/C(=C\c2cc(OCc3cncc(NCc4ccccn4)c3)c(O)cc2Br)C1=O [Ex227]
≥ 10 | CN1C(=O)S/C(=C\c2cc(Oc3ccncc3)c(O)cc2Br)C1=O [Ex230]
≤ 0.5 | O=C1/C(=C/c2cc(OCc3cnc(NCc4ccccn4)nc3)c(O)cc2Br)Sc2ncccc21 [Ex198]
0.5 to 10 | CN1C(=O)S/C(=C\c2cc(OCc3cnc([S+](C)[O-])nc3Cl)c(O)cc2Br)C1=O (centres unmarked) [Ex214]
≥ 10 | COc1cc(/C=C2\SC(=O)N(C)C2=O)c(Br)cc1NS(=O)(=O)c1ccccc1 [Ex23]
≥ 10 | CN1C(=O)S/C(=C\c2cc(OCc3cnc(N(C)C)nc3)c(O)cc2Br)C1=O [Ex162]
≥ 10 | CN1C(=O)S/C(=C\c2cc(OCc3cncc(NCc4ccncc4)c3)c(O)cc2Br)C1=O [Ex228]
≥ 10 | CN1C(=O)S/C(=C\c2cc(OCc3cnc(N4CCCCC4)nc3)c(O)cc2Br)C1=O [Ex164]
≥ 10 | COc1cc(/C=C2\SC(=O)N(C)C2=O)c(Br)cc1NS(C)(=O)=O [Ex22]
0.5 to 10 | CN1C(=O)S/C(=C\c2cc(OCC3CCN(C(=O)c4cccnc4)CC3)c(O)cc2Br)C1=O [Ex129]
≥ 10 | CN1C(=O)S/C(=C\c2cc(OCc3cnc(N4CCCC4)nc3)c(O)cc2Br)C1=O [Ex163]

IC50 [µM] | SMILES
≤ 0.5 | COc1cc(/C=C2\Sc3ncccc3C2=O)c(Br)c(Cl)c1O [Ex46]
0.5 to 10 | COc1cc(/C=c2\sc3n(c2=O)CCN=3)c(Br)cc1O [Ex40]
0.5 to 10 | CN1C(=O)S/C(=C\c2cc(OCc3cnc(N)nc3C3CC3)c(O)c(F)c2Br)C1=O [Ex109]
0.5 to 10 | CN1C(=O)S/C(=C\c2cc(OCc3ccc(NC(=O)c4cccnc4)nc3)c(O)cc2Br)C1=O [Ex55]
0.5 to 10 | Cc1nc2c(Oc3cc(/C=C4\SC(=O)N(C)C4=O)c(Br)cc3O)cccc2o1 [ExB13]
0.5 to 10 | CN1C(=O)S/C(=C\c2cc(OCc3cncc4ccccc34)c(O)cc2Br)C1=O [Ex176]
0.5 to 10 | CN1CCC(COc2cc(/C=C3\SC(=O)N(C)C3=O)c(Br)cc2O)CC1 [Ex126]
≤ 0.5 | CC(Oc1cc(/C=C2\Sc3ncccc3C2=O)c(Br)cc1O)c1cnc(Cl)nc1 (centres unmarked) [Ex121]
0.5 to 10 | CC(=O)c1cc(/C=C2\SC(=O)N(C)C2=O)c(Br)cc1O [Ex59]
≤ 0.5 | CSc1nc([S+](C)[O-])ncc1COc1cc(/C=C2\Sc3ncccc3C2=O)c(Br)c(F)c1O (centres unmarked) [ExA16]
0.5 to 10 | CN1C(=O)S/C(=C\c2cc(OCc3cnc(NCc4ccccc4)nc3)c(O)cc2Br)C1=O [Ex154]
0.5 to 10 | CCc1cc(/C=C2\SC(=O)N(C)C2=O)c(Br)cc1O [Ex58]
≥ 10 | COc1cc(/C(Br)=C2\SC(=O)N(C)C2=O)c(Br)cc1O [Ex20]
≤ 0.5 | CN1C(=O)S/C(=C\c2cc(OCc3ccc(NC(=O)c4ccncc4)nc3)c(O)cc2Br)C1=O [Ex54]
≤ 0.5 | CC(Oc1cc(/C=C2\SC(=O)N(C)C2=O)c(Br)c(F)c1O)C(O)c1cncnc1N (centres unmarked) [ExB37]
≤ 0.5 | CN1C(=O)S/C(=C\c2cc(OCc3cncnc3O)c(O)cc2Br)C1=O [Ex218]
≥ 10 | CN1C(=O)S/C(=C\c2cc(Oc3cccc4cnccc34)c(O)cc2Br)C1=O [ExB25]
0.5 to 10 | CN1C(=O)S/C(=C\c2cc(OCc3cnc(S(C)(=O)=O)nc3Cl)c(O)cc2Br)C1=O [Ex221]
0.5 to 10 | CN1C(=O)S/C(=C\c2cc(OCc3ccnc(N)n3)c(O)cc2Br)C1=O [Ex138]
0.5 to 10 | COc1cc(/C=c2\sc3n(c2=O)CCCN=3)c(Br)cc1O [Ex42]
0.5 to 10 | CN1C(=O)S/C(=C\c2cc(OCc3cncc(N)c3)c(O)cc2Br)C1=O [Ex132]
0.5 to 10 | CCC(Oc1cc(/C=C2\SC(=O)N(C)C2=O)c(Br)c(F)c1O)c1cnc(Cl)nc1 (centres unmarked) [ExB31]

IC50 [µM] | SMILES
≥ 10 | CC(C)c1cc(/C=C2\SC(=O)N(C)C2=O)c(Br)cc1O [ExB18]
≤ 0.5 | CN1C(=O)S/C(=C\c2cc(C(F)(F)F)c(O)cc2Br)C1=O [ExB16]
≥ 10 | COc1cc(/C=c2\sc3ncc(C)n3c2=O)c(Br)cc1O [Ex17]
0.5 to 10 | COc1nc([S+](C)[O-])ncc1COc1cc(/C=C2\SC(=O)N(C)C2=O)c(Br)cc1O (centres unmarked) [Ex212]
≤ 0.5 | CN1C(=O)S/C(=C\c2cc(OCc3cnc(NC(=O)c4ccncc4)nc3)c(O)c(F)c2Br)C1=O [Ex191]
0.5 to 10 | CN1C(=O)S/C(=C\c2cc(OCc3cnc(-c4cccnc4)nc3)c(O)cc2Br)C1=O [Ex96]
≥ 10 | CN1C(=O)S/C(=C\c2cc(O)c(O)cc2F)C1=O [Ex10]
≥ 10 | CC(C)CNc1cncc(COc2cc(/C=C3\SC(=O)N(C)C3=O)c(Br)cc2O)c1 [Ex229]
≤ 0.5 | COc1cc(/C=C2\Sc3ncccc3C2=O)c(I)cc1O [Ex77]
0.5 to 10 | COc1cc(/C=C2\Sc3ncccc3C2=O)c(Br)c(Br)c1O [Ex47]
≤ 0.5 | COc1cc(/C=C2\Sc3cnccc3C2=O)c(Br)cc1O [Ex49]
0.5 to 10 | COc1cc(/C=c2\sc3n(c2=O)CCN=3)c(Cl)cc1O [Ex41]
0.5 to 10 | COc1nc(SC)ncc1COc1cc(/C=C2\SC(=O)N(C)C2=O)c(Br)cc1O [Ex99]
0.5 to 10 | CN1CCC(c2ncc(COc3cc(/C=C4\SC(=O)N(C)C4=O)c(Br)cc3O)cn2)CC1 [Ex209]
0.5 to 10 | CN1C(=O)S/C(=C\c2ccc(O)cc2Br)C1=O [Ex52]
0.5 to 10 | CN1C(=O)S/C(=C\c2cc(OCC3(c4cnc(N)nc4)CC3)c(O)c(F)c2Br)C1=O [ExB6]
0.5 to 10 | CN1C(=O)S/C(=C\c2cc(OCCc3ccncc3)c(O)cc2Br)C1=O [Ex179]
≥ 10 | CCC/N=C1/S/C(=C\c2cc(OC)c(O)cc2Br)C(=O)N1C [ExB24]
0.5 to 10 | COc1cc(/C=C2\SC(=O)N(C)C2=O)c(Br)cc1Oc1nncs1 [Ex201]
0.5 to 10 | CN1C(=O)S/C(=C\c2cc(OCc3ccccn3)c(O)cc2Br)C1=O [Ex89]
0.5 to 10 | O=C1NC(=O)/C(=C/c2ccncc2)N1 [Ex14]
0.5 to 10 | COc1cc(/C=C2\SC(=O)N(C)C2=O)c(C#N)cc1O [Ex205]

IC50 [µM] | SMILES
≤ 0.5 | O=C1/C(=C/c2ccc(O)cc2Br)Sc2ncccc21 [Ex71]
≥ 10 | COc1cc(/C=C2\SC(=O)N(C)C2=O)c(Br)cc1NS(=O)(=O)c1ccc(C)cc1 [Ex24]
0.5 to 10 | COc1nc(N)ncc1COc1cc(/C=C2\SC(=O)N(C)C2=O)c(Br)cc1O [Ex222]
0.5 to 10 | CC(C)Nc1ncc(COc2cc(/C=C3\SC(=O)N(C)C3=O)c(Br)cc2O)cn1 [Ex150]
≤ 0.5 | Nc1ncc(COc2cc(/C=C3\Sc4ncccc4C3=O)c(Br)cc2O)c(C(F)(F)F)n1 [Ex118]
0.5 to 10 | COc1cc(/C=C2\SC(=O)N(C)C2=O)c(C)cc1O [Ex64]
0.5 to 10 | CC(=O)Nc1ncc(S(=O)(=O)Nc2cc(Br)c(/C=C3\SC(=O)N(C)C3=O)cc2OCc2ccccc2)s1 [Ex62]
≥ 10 | CN1C(=O)S/C(=C\c2cc3nn[nH]c3cc2Br)C1=O [Ex36]
0.5 to 10 | COc1cc(/C=C2\SC(=O)N(C)C2=O)c(Br)cc1Oc1cnc(NCc2ccncc2)s1 [Ex206]
0.5 to 10 | CN1C(=O)S/C(=C\c2cc(OCc3ccnc(N)c3)c(O)cc2Br)C1=O [Ex133]
≤ 0.5 | O=C1/C(=C/c2cc(OCc3cnc(NCc4cccnc4)nc3)c(O)cc2Br)Sc2ncccc21 [Ex199]
0.5 to 10 | CC(Oc1cc(/C=C2\Sc3ncccc3C2=O)c(Br)cc1O)c1cccnc1 (centres unmarked) [Ex119]
0.5 to 10 | COc1cc(/C=C2\SC(=O)N(C)C2=O)c(Br)cc1OCc1ccncc1 [Ex203]
≥ 10 | CC/N=C1/S/C(=C\c2cc(OC)c(O)cc2Br)C(=O)N1C [ExB23]
0.5 to 10 | CC(Oc1cc(/C=C2\SC(=O)N(C)C2=O)c(Br)cc1O)c1cnc(NCCO)nc1 (centres unmarked) [Ex181]
0.5 to 10 | CN1C(=O)S/C(=C\c2cc(Oc3cnc(N)s3)c(O)c(F)c2Br)C1=O [ExB30]
≤ 0.5 | CN1C(=O)S/C(=C\c2cc(OCc3cnc(NCc4ccncc4)nc3)c(O)c(F)c2Br)C1=O [Ex190]
≤ 0.5 | Cc1cnccc1/C=C1\SC(=O)NC1=O [Ex3]
≥ 10 | CN1C(=O)S/C(=C\c2cc(OCc3cn(-c4ccccc4)nn3)c(O)cc2Br)C1=O [Ex232]
0.5 to 10 | CN1C(=O)S/C(=C\c2cc(OCc3cnc(Nc4cccnc4)nc3)c(O)cc2Br)C1=O [Ex159]
